± gives the expanded uncertainty stated by the source.
Test: mn = molality of the nth substance listed, in mol/kg
Settings: 101 kPa, Liquid, Linear variable-path acoustic interferometer

CCCC[N+](CCCC)(CCCC)CCCC.[Br-] [tetrabutylammonium bromide] + O
speed of sound [m/s]
Settings	283.15 K	298.15 K	318.15 K	338.15 K
m1 = 0.05	1463 ± 1.8	1508.4 ± 2	1544.6 ± 2	1558.6 ± 1.8
m1 = 0.075	1470.4 ± 1.9	1514.2 ± 1.8	1548.4 ± 1.8	1561.2 ± 1.8
m1 = 0.1	1477.8 ± 1.8	1520.2 ± 1.8	1552.9 ± 1.8	1564.2 ± 1.8
m1 = 0.2	1506.2 ± 2.4	1541.4 ± 1.8	1567.4 ± 1.8	1573.6 ± 1.8
m1 = 0.3	1532.5 ± 1.8	1561 ± 1.8	1580.7 ± 1.8	1582.4 ± 1.8
m1 = 0.5	1579 ± 1.9	1596.3 ± 1.9	1604.7 ± 1.8	1597 ± 1.8
m1 = 0.75	1628.2 ± 1.9	1632.7 ± 1.9	1627.3 ± 1.9	1610.3 ± 1.9
m1 = 1	1667.1 ± 1.9	1661.2 ± 1.9	1644.1 ± 1.9	1619.5 ± 1.9
m1 = 1.5	1718.2 ± 2	1697.4 ± 2	1663.3 ± 2	1626.6 ± 1.9
m1 = 2	1743.4 ± 2.1	1713.7 ± 2	1669.5 ± 2	1625 ± 2
m1 = 2.5	1752.2 ± 2.1	1718 ± 2.1	1668.5 ± 2.1	1619.5 ± 2
m1 = 3	1753.9 ± 2.1	1717.6 ± 2.1	1668.3 ± 2.1	1615.4 ± 2.1

[2H]O[2H] [water-d2] + C[N+](C)(C)C.[Br-]
speed of sound [m/s]
Settings	283.15 K	298.15 K	318.15 K	338.15 K
m2 = 0.05	1352 ± 1.7	1403 ± 1.9	1443.9 ± 1.9	1462.3 ± 1.7
m2 = 0.075	1354.7 ± 1.7	1405.2 ± 1.7	1445.4 ± 1.7	1463.6 ± 1.8
m2 = 0.1	1357.5 ± 1.7	1407.4 ± 1.7	1447.1 ± 1.7	1465.1 ± 1.7
m2 = 0.2	1366.7 ± 2	1414.7 ± 1.7	1452.9 ± 1.7	1469.8 ± 1.9
m2 = 0.3	1376.5 ± 1.7	1422.2 ± 1.7	1458.6 ± 1.7	1474.5 ± 1.7
m2 = 0.5	1393.7 ± 1.7	1436.4 ± 1.7	1469.8 ± 1.7	1484.1 ± 1.7
m2 = 0.75	1414.4 ± 1.7	1453.8 ± 1.7	1483.7 ± 1.7	1495.7 ± 1.7
m2 = 1	1433.4 ± 1.7	1470.2 ± 1.7	–	1506.9 ± 1.8
m2 = 1.5	1469.8 ± 1.7	1500.5 ± 1.8	1521.2 ± 1.8	1527.4 ± 1.8
m2 = 2	1502.4 ± 1.8	1528 ± 1.8	1543.6 ± 1.8	1546.4 ± 1.8
m2 = 2.5	1532.1 ± 1.8	1552.9 ± 1.8	1564.3 ± 1.8	1564.2 ± 1.8
m2 = 3	1560.4 ± 1.8	1575.5 ± 1.8	1583.5 ± 1.8	1580.8 ± 1.8

C[N+](C)(C)C.[Br-] [tetramethylammonium bromide] + O
speed of sound [m/s]
Settings	283.15 K	298.15 K	318.15 K	338.15 K
m1 = 0.05	1451 ± 1.7	1499.7 ± 1.8	1538.7 ± 1.9	1555.6 ± 1.8
m1 = 0.075	1452.9 ± 1.7	1500.3 ± 1.7	1540 ± 1.8	1556.2 ± 1.8
m1 = 0.1	1455 ± 1.7	1502.5 ± 1.7	1541.1 ± 1.8	1556.9 ± 1.8
m1 = 0.2	1462.1 ± 1.7	1508.1 ± 1.7	1545.8 ± 1.8	1560.9 ± 1.8
m1 = 0.3	1469.5 ± 1.7	1513.7 ± 1.8	1550.4 ± 1.8	1564.6 ± 1.8
m1 = 0.5	1483.1 ± 1.7	1524.7 ± 1.8	1559.3 ± 1.8	1571 ± 1.8
m1 = 0.75	1499.8 ± 1.7	1537.9 ± 1.8	1569.3 ± 1.8	1579.2 ± 1.8
m1 = 1	1515.7 ± 1.8	1550.8 ± 1.8	1578.6 ± 1.8	1587.3 ± 1.8
m1 = 1.5	1544.7 ± 1.8	1575.1 ± 1.8	1596.6 ± 1.8	1602 ± 1.8
m1 = 2	1571.1 ± 1.8	1597.2 ± 1.8	1613.1 ± 1.8	1615.7 ± 1.8
m1 = 2.5	1595.4 ± 1.8	1617 ± 1.8	1628.8 ± 1.8	1628.9 ± 1.8
m1 = 3	1617.4 ± 1.8	1633.7 ± 1.9	1644.7 ± 1.9	1641.3 ± 1.9

[2H]O[2H] [water-d2] + CCCC[N+](CCCC)(CCCC)CCCC.[Br-]
speed of sound [m/s]
Settings	283.15 K	298.15 K	318.15 K	338.15 K
m2 = 0.05	1366.8 ± 1.8	1414 ± 2	1451.5 ± 2	–
m2 = 0.075	1375.9 ± 3.5	1421.1 ± 1.8	1456.5 ± 1.8	1470.5 ± 1.7
m2 = 0.1	1384.4 ± 1.8	–	1461.4 ± 1.8	1474.3 ± 1.7
m2 = 0.2	1419.1 ± 1.8	1453.9 ± 1.8	1479.9 ± 1.8	1486.6 ± 1.8
m2 = 0.3	1450.2 ± 1.8	1478.2 ± 1.8	–	1498.1 ± 1.8
m2 = 0.5	1506 ± 1.8	–	1525.8 ± 1.8	1518.2 ± 1.8
m2 = 0.75	1562.5 ± 1.9	1562.4 ± 1.9	1554.8 ± 1.8	1536.6 ± 1.8
m2 = 1	1605.4 ± 1.9	1594.2 ± 1.9	1576.2 ± 1.9	1550.2 ± 1.9
m2 = 1.5	1658.6 ± 2	1634.9 ± 2	1601 ± 1.9	1563.5 ± 1.9
m2 = 2	1680.5 ± 2	1652.1 ± 2	1610 ± 2	1566.4 ± 2
m2 = 2.5	1686.3 ± 2.1	1657 ± 2.1	1611.3 ± 2	1563.7 ± 2
m2 = 3	1688.9 ± 2.1	1661.4 ± 2.1	1615.2 ± 2.1	1564 ± 2.1

From the NIST ThermoML archive (doi:10.1021/je800908h)
